PubChem BioAssay AID330 (DTP/NCI, 2004)
Several values for one entry are separate records, joined by “and”; a condition that tells them apart may be missing. Identical values can stand only once. Toxic doses and inconclusive results are not listed.

System: P388 leukemia ip, CD2F1 mice, survival T/C
Experiment: NCI In Vivo Anticancer Drug Screen. Data for tumor model P388 Leukemia (intraperitoneal) in CD2F1 (CDF1) mice
Details: endpoint: median survival time, higher = longer survival
Method in brief: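 Mice carrying the transplanted tumor received test compound or vehicle. Survival was recorded in each group, and the value is the treated-group measurement divided by that of the vehicle-treated control group.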

[1] = dose: 100.0 mg/kg/injection, schedule: Q04DX002 (ip), vehicle: saline with Tween-80
[2] = dose: 6.25 mg/kg/injection, schedule: Q01DX009 (ip), vehicle: saline
[3] = dose: 12.5 mg/kg/injection, schedule: Q01DX009 (ip), vehicle: saline
[4] = dose: 25.0 mg/kg/injection, schedule: Q01DX009 (ip), vehicle: saline
[5] = dose: 50.0 mg/kg/injection, schedule: Q01DX009 (ip), vehicle: saline
[6] = dose: 100.0 mg/kg/injection, schedule: Q01DX009 (ip), vehicle: saline
[7] = dose: 200.0 mg/kg/injection, schedule: Q01DX009 (ip), vehicle: saline
[8] = dose: 50.0 mg/kg/injection, schedule: Q01DX005 (ip), vehicle: saline with Tween-80
[9] = dose: 100.0 mg/kg/injection, schedule: Q01DX005 (ip), vehicle: saline with Tween-80
[10] = dose: 50.0 mg/kg/injection, schedule: Q01DX009 (ip), vehicle: saline with Tween-80
[11] = dose: 100.0 mg/kg/injection, schedule: Q01DX009 (ip), vehicle: saline with Tween-80
[12] = dose: 200.0 mg/kg/injection, schedule: Q01DX009 (ip), vehicle: saline with Tween-80
[13] = dose: 50.0 mg/kg/injection, schedule: Q01DX005 (ip), vehicle: Klucel (hydroxypropylcellulose) (HPC)
[14] = dose: 60.0 mg/kg/injection, schedule: Q01DX005 (ip), vehicle: saline with Tween-80
[15] = dose: 120.0 mg/kg/injection, schedule: Q01DX005 (ip), vehicle: saline with Tween-80
[16] = dose: 100.0 mg/kg/injection, schedule: Q01DX005 (ip), vehicle: Klucel (hydroxypropylcellulose) (HPC)
[17] = dose: 200.0 mg/kg/injection, schedule: Q01DX005 (ip), vehicle: Klucel (hydroxypropylcellulose) (HPC)
[18] = dose: 200.0 mg/kg/injection, schedule: Q01DX005 (ip), vehicle: saline with Tween-80

Nc1[nH]c(=S)[nH]c(=S)c1N
T/C [1]: 102 % of control | T/C (dose: 200.0 mg/kg/injection, schedule: Q04DX002 (ip), vehicle: saline with Tween-80): 98 % of control | T/C (dose: 400.0 mg/kg/injection, schedule: Q04DX002 (ip), vehicle: saline with Tween-80): 94 % of control

NCCc1cc(O)c(O)cc1O
T/C [2]: 101 % of control and 105 % of control | T/C [3]: 107 % of control and 97 % of control | T/C [4]: 101 % of control and 109 % of control | T/C [5]: 100 % of control and 111 % of control

Cc1cc(NC(=O)COCC(=O)O)no1
T/C (dose: 60.0 mg/kg/injection, schedule: Q01DX005 (ip), vehicle: Klucel (hydroxypropylcellulose) (HPC)): 101 % of control | T/C (dose: 120.0 mg/kg/injection, schedule: Q01DX005 (ip), vehicle: Klucel (hydroxypropylcellulose) (HPC)): 101 % of control | T/C (dose: 240.0 mg/kg/injection, schedule: Q01DX005 (ip), vehicle: Klucel (hydroxypropylcellulose) (HPC)): 92 % of control

C=C[Si](C)(C)c1ccc([Si](C)(C)C=C)cc1
T/C [2]: 107 % of control | T/C [3]: 105 % of control | T/C [4]: 117 % of control | T/C [6]: 97 % of control | T/C [7]: 99 % of control

CCN(CC)CCNC(=O)c1ccc2c(c1O)C(=O)c1ccccc1C2=O
T/C [8]: 106 % of control | T/C [9]: 106 % of control

COc1ccc[nH]c1=O
T/C [5]: 102 % of control and 103 % of control | T/C [6]: 106 % of control and 109 % of control | T/C [7]: 100 % of control and 105 % of control | T/C (dose: 400.0 mg/kg/injection, schedule: Q01DX009 (ip), vehicle: saline): 105 % of control and 112 % of control | T/C (dose: 600.0 mg/kg/injection, schedule: Q01DX009 (ip), vehicle: saline): 106 % of control and 114 % of control

O=[N+]([O-])c1cc2[nH]cnc2c([N+](=O)[O-])c1NCCO
T/C [10]: 110 % of control | T/C [11]: 108 % of control | T/C [12]: 94 % of control

CCOc1ccc(C2=C(O)/C(=C(\C(=O)Nc3nccs3)c3ccc(OCC)cc3)OC2=O)cc1
T/C (dose: 12.5 mg/kg/injection, schedule: Q01DX005 (ip), vehicle: Klucel (hydroxypropylcellulose) (HPC)): 109 % of control | T/C (dose: 25.0 mg/kg/injection, schedule: Q01DX005 (ip), vehicle: Klucel (hydroxypropylcellulose) (HPC)): 104 % of control | T/C [13]: 100 % of control and 104 % of control

Nc1ncnc2c1cnn2C1OC(CO)C(O)C1O (stereo not given)
T/C (dose: 16.5 mg/kg/injection, schedule: Q01DX009 (ip), vehicle: saline with Tween-80): 152 % of control | T/C (dose: 25.0 mg/kg/injection, schedule: Q01DX009 (ip), vehicle: saline with Tween-80): 154 % of control | T/C (dose: 37.5 mg/kg/injection, schedule: Q01DX009 (ip), vehicle: saline with Tween-80): 124 % of control

CCOC(=O)C(c1ccccc1)c1cccc(C(C(=O)OCC)c2ccccc2)n1 (stereo not given)
T/C [14]: 93 % of control | T/C [15]: 90 % of control | T/C (dose: 240.0 mg/kg/injection, schedule: Q01DX005 (ip), vehicle: saline with Tween-80): 87 % of control

C[N+]12CCN(CC1)CC2
T/C (dose: 100.0 mg/kg/injection, schedule: Q04DX003 (ip), vehicle: saline): 104 % of control | T/C (dose: 200.0 mg/kg/injection, schedule: Q04DX003 (ip), vehicle: saline): 95 % of control | T/C (dose: 400.0 mg/kg/injection, schedule: Q04DX003 (ip), vehicle: saline): 100 % of control

CSC(=S)N/N=C(\C)c1cccs1
T/C [10]: 91 % of control | T/C [11]: 111 % of control | T/C [12]: 110 % of control

O=S(=O)(Nc1ccc(Br)c2ccccc12)c1ccccc1
T/C (dose: 18.75 mg/kg/injection, schedule: Q01DX001 (ip), vehicle: saline with Tween-80): 95 % of control | T/C (dose: 37.5 mg/kg/injection, schedule: Q01DX001 (ip), vehicle: saline with Tween-80): 95 % of control | T/C (dose: 75.0 mg/kg/injection, schedule: Q01DX001 (ip), vehicle: saline with Tween-80): 95 % of control

Cc1cc(C)nc(NCCCCCCCCNc2nc(C)cc(C)n2)n1
T/C [13]: 91 % of control | T/C [16]: 96 % of control | T/C [17]: 90 % of control

COC(=O)c1nc(=S)[nH]c(C(=O)OC)c1C(=O)c1ccc(O)cc1O
T/C [14]: 99 % of control | T/C [15]: 98 % of control

COc1cc2c(cc1OC)C(c1ccccc1)ON(C)CC2 (stereo not given)
T/C [13]: 100 % of control | T/C [16]: 99 % of control | T/C [17]: 104 % of control

COc1ccc(S(=O)(=O)N/N=C\c2cccc([N+](=O)[O-])c2O)c(OC)c1OC
T/C [8]: 100 % of control | T/C [9]: 102 % of control | T/C [18]: 96 % of control

Cc1cc(NCCCN(C)C)c2ccc3cc4ccccc4cc3c2n1
T/C (dose: 25.0 mg/kg/injection, schedule: Q04DX002 (ip), vehicle: saline with Tween-80): 93 % of control | T/C (dose: 50.0 mg/kg/injection, schedule: Q04DX002 (ip), vehicle: saline with Tween-80): 92 % of control | T/C [1]: 108 % of control and 94 % of control

O=C1C(CCl)=CS(=O)(=O)c2ccccc21
T/C [2]: 109 % of control | T/C [3]: 116 % of control | T/C [4]: 100 % of control

Cc1ccc(S(=O)(=O)N/N=C/c2cccc([N+](=O)[O-])c2O)cc1
T/C [8]: 101 % of control | T/C [9]: 104 % of control | T/C [18]: 93 % of control

O=c1[nH]c(CN2CCOCC2)ncc1C1CCCCC1
T/C [10]: 97 % of control | T/C [11]: 100 % of control | T/C [12]: 95 % of control

CC1=C(C)C(=O)c2nn(C)nc2C1=O
T/C (dose: 6.25 mg/kg/injection, schedule: Q01DX001 (ip), vehicle: saline): 100 % of control | T/C (dose: 12.5 mg/kg/injection, schedule: Q01DX001 (ip), vehicle: saline): 98 % of control | T/C (dose: 25.0 mg/kg/injection, schedule: Q01DX001 (ip), vehicle: saline): 99 % of control

O=C1C=C(Nc2ncccn2)c2ccccc2C1=O
T/C (dose: 6.25 mg/kg/injection, schedule: Q01DX005 (ip), vehicle: Klucel + Tween-80): 115 % of control | T/C (dose: 12.5 mg/kg/injection, schedule: Q01DX005 (ip), vehicle: Klucel + Tween-80): 98 % of control | T/C (dose: 25.0 mg/kg/injection, schedule: Q01DX005 (ip), vehicle: Klucel + Tween-80): 104 % of control

CCCCC1(CN(C)C)C(=O)N(C)C(=O)N(C2CCCCC2)C1=O (stereo not given)
T/C [10]: 100 % of control | T/C [11]: 102 % of control | T/C [12]: 99 % of control

Cc1ccc2c(c1)C1(C)C=C(CN3CCN(C)CC3)C(=O)CC1O2 (stereo not given)
T/C (dose: 50.0 mg/kg/injection, schedule: Q01DX005 (ip), vehicle: saline): 108 % of control | T/C (dose: 100.0 mg/kg/injection, schedule: Q01DX005 (ip), vehicle: saline): 103 % of control

O=[n+]1ccn([O-])c2ccccc21.[Mn].[O-][Cl+3]([O-])([O-])O
T/C (dose: 100.0 mg/kg/injection, schedule: Q04DX003 (ip), vehicle: saline with Tween-80): 118 % of control

COc1ccc(Cc2cc3c(cc2OCC(=O)Nc2ccccn2)OCO3)cc1
T/C (dose: 6.25 mg/kg/injection, schedule: Q01DX005 (ip), vehicle: saline with Tween-80): 92 % of control | T/C (dose: 12.5 mg/kg/injection, schedule: Q01DX005 (ip), vehicle: saline with Tween-80): 90 % of control | T/C (dose: 25.0 mg/kg/injection, schedule: Q01DX005 (ip), vehicle: saline with Tween-80): 86 % of control | T/C [9]: 90 % of control | T/C [18]: 90 % of control

CN(C)CCSCC(=O)Nc1ccccc1Cl
T/C (dose: 60.0 mg/kg/injection, schedule: Q01DX005 (ip), vehicle: saline): 103 % of control | T/C (dose: 120.0 mg/kg/injection, schedule: Q01DX005 (ip), vehicle: saline): 106 % of control | T/C (dose: 240.0 mg/kg/injection, schedule: Q01DX005 (ip), vehicle: saline): 106 % of control

Nc1nc(N)c2[nH]c(=O)[nH]c2n1
T/C [8]: 103 % of control | T/C [9]: 103 % of control | T/C [18]: 118 % of control

CCC1(CC)c2c(ccc(OC)c2OC)C=C2c3cc4c(cc3CCN21)OCO4
T/C (dose: 0.63 mg/kg/injection, schedule: Q01DX009 (ip), vehicle: distilled water + Tween-80): 108 % of control | T/C (dose: 0.63 mg/kg/injection, schedule: Q01DX009 (ip), vehicle: water): 94 % of control | T/C (dose: 1.25 mg/kg/injection, schedule: Q01DX009 (ip), vehicle: distilled water + Tween-80): 108 % of control | T/C (dose: 1.25 mg/kg/injection, schedule: Q01DX009 (ip), vehicle: water): 103 % of control | T/C (dose: 2.5 mg/kg/injection, schedule: Q01DX009 (ip), vehicle: distilled water + Tween-80): 123 % of control | T/C (dose: 2.5 mg/kg/injection, schedule: Q01DX009 (ip), vehicle: water): 112 % of control
